US8404706B2, “Opioid and opioid-like compounds and uses thereof” (Jenken Biosciences, Inc., priority 2002, dated 2013)

Key:
σ1 = σ1 (Homo sapiens, UniProt Q99720); conditions: cited from earlier work; for Ki: read-out: Ki (σ1-ligands)
[1] = system: rats treated with lipopolysaccharide (LPS); assay: Mean arterial blood pressure (MAP) in LPS-treated rats; format: in vivo, Wistar-Kyoto (WKY) rats; conditions: 5 mg/Kg iv 30 min before LPS (10 mg/Kg iv); 6 h after LPS
Protocol: (§1) Wistar-Kyoto (WKY) rats were anesthetized by intraperitoneal injection of urethane (1.2 g/kg). The trachea was cannulated to facilitate respiration and environmental temperature was maintained at 24° C. with an air-conditioning system. […] The left jugular vein was cannulated for the administration of drugs. Upon completion of the surgical procedure, cardiovascular parameters were allowed to stabilize for 30 min. After recording baseline hemodynamic parameters, animals were given norepinephrine [NE, 1 μg/kg intravenously (i.v.)], and 10 min later animals received vehicle (saline) or Escherichia coli lipopolysaccharide (LPS), 5-10 mg/kg, i.v. and were monitored for 360 min. The pressor responses to NE were reassessed every hour after vehicle or LPS injection. Prior to (i.e., at time 0) and every hour after vehicle or LPS, 0.5 mL of blood was taken to measure the changes in cytokine tumor necrosis factor-α (TNF-α), interleukin-10β (IL-10), and nitrate (an indicator of NO) (Yen, M. H. et al., Shock 14, 60-67, 2000). Any blood withdrawn was immediately replaced by the injection of an equal volume of saline (i.v.) in order to maintain the blood volume. The drug was administered i.v. 30 min. prior to and 30 min. after the injection of LPS. All hemodynamic and biochemical parameters were recorded for 6 hours in all animal groups.
(§2) Compounds, XXV and XXVI (shown below), were tested according to the foregoing protocols. In the following tables, XXV or XXVI (5 mg/Kg, iv) was injected 30 min before LPS treatment (10 mg/Kg, iv) unless otherwise indicated. In all experiments, at least six rats were tested. All measurements were performed 6 h after LPS injection unless otherwise indicated. The inhibitory effects of the compounds tested were described as a percentage of protection or inhibition with respect to the change in LPS-treated animals as compared to the control animals.

Creatinine = assay: Plasma creatinine in LPS-treated rats; format: in vivo; conditions: 5 mg/Kg iv 30 min before LPS (10 mg/Kg iv); 6 h after LPS
Protocol: as §1, with “Any blood withdrawn was immediately replaced by the injection of an equal volume of saline (i.v.) in order to maintain the blood volume. The drug was administered i.v. 30 min. prior to and 30 min. after the injection of LPS.” left out
(§3) BUN and Creatinine levels were measured at 0 and 6 hr after injection of saline or LPS by “DRI-Chemical slide” (Fujifilm Co., dropping 10 μL plasma onto the slide with micropipette). […]

Superoxide = Superoxide in LPS-treated rats; format: in vivo; conditions: 6 h after LPS
Protocol: as §2

Blood urea nitrogen = Blood urea nitrogen (BUN) in LPS-treated rats; format: in vivo; conditions: 5 mg/Kg iv 30 min before LPS (10 mg/Kg iv); 6 h after LPS
Protocol: as §1, with “Any blood withdrawn was immediately replaced by the injection of an equal volume of saline (i.v.) in order to maintain the blood volume. The drug was administered i.v. 30 min. prior to and 30 min. after the injection of LPS.” left out
as §3

[2] = system: rats treated with lipopolysaccharide (LPS); assay: Heart rate in LPS-treated rats; format: in vivo, Wistar-Kyoto (WKY) rats; conditions: 5 mg/Kg iv 30 min before LPS (10 mg/Kg iv); 6 h after LPS
Protocol: as §1, §2

[3] = system: nitrate (an indicator of NO); assay: Plasma nitrate in LPS-treated rats; format: in vivo, Wistar-Kyoto (WKY) rats; conditions: 5 mg/Kg iv 30 min before LPS (10 mg/Kg iv); 6 h after LPS
Protocol: as §1, with “Prior to (i.e., at time 0) and every hour after vehicle or LPS, 0.5 mL of blood was taken to measure the changes in cytokine tumor necrosis factor-α (TNF-α), interleukin-10β (IL-10), and nitrate (an indicator of NO) (Yen, M. H. et al., Shock 14, 60-67, 2000). Any blood withdrawn was immediately replaced by the injection of an equal volume of saline (i.v.) in order to maintain the blood volume. The drug was administered i.v. 30 min. prior to and 30 min. after the injection of LPS.” left out
Fifty microliters of plasma previously kept in −20° C. freezer was thawed and de-proteinized by incubating with 95% ethanol (4° C.) for 30 min. […] The amounts of nitrate in the plasma ([…]) were measured by adding a reducing agent (0-8% VCl3 in 1N HCl) to the purge vessel to convert nitrate to NO, which was stripped from the plasma by using a helium gas purge. […] Nitrate concentrations were calculated by comparison with standard solutions of sodium nitrate (Sigma Chemical Co., St. Louis, Mo.). […]

[4] = system: lung tissues of rats receiving lipopolysaccharide (LPS); assay: Histological study of lung tissue after LPS
From the text: Lungs and livers were obtained from surviving mice in each group after the survival study and these tissues were fixed in Carson-Millonig's solution for histopathological examination as described previously in Chen, A. et al. Lab. […] The fixed lung and liver tissues were dehydrated in graded ethanol and embedded in paraffin. Three-micron sections were stained with the hematoxylin and eosin reagent for light microscopy. […] This histological alteration was quantitatively analyzed as an index on the severity of tissue injury. This index was a neutrophil infiltration index which was determined by counting the numbers of neutrophils in 10 randomly selected high power fields. The index was expressed as the mean of these 10 numbers±standard error of the mean (SEM)/high power field.

SGOT = assay: Serum glutamic oxaloacetic transaminase (SGOT) in LPS-treated rats; format: in vivo; conditions: for SGOT % Inhibition / SGOT, LPS + Compound: 6 h after LPS
Protocol: as §1
(§4) 10 μl of serum was taken out at 0 and 6 hr intervals and were added to slides of GOP and GTP and then placed in DRI-CHEM 3000 (Colorige Tric Analyzer; FUJIFILM; Tokyo, Japan.
as §2

SGPT = assay: Serum glutamic pyrate transaminase (SGPT) in LPS-treated rats; format: in vivo; conditions: for SGPT, LPS + Compound / SGPT % Inhibition: 6 h after LPS
Protocol: as §1, §4, §2

[5] = system: ICR mice injected with LPS; assay: Survival study after LPS; format: in vivo
Protocol: Survival studies were performed in ICR mice (28-35 g), whose stock originated from the Institute of Cancer Research of National Institute of Health in U.S.A. They were purchased from the National Animal Center (Taipei, R.O.C., Taiwan). LPS [60 mg/kg intraperitoneally (i.p.)] was injected in the presence of vehicle or drugs and survival was monitored every 6 hours until 36 hours, Different groups of animals received vehicle (saline) together with LPS (n=20) or LPS plus compounds (2.5 mg/kg at time 0 and 6 hours after LPS, n=20).
All values in the figures and text are expressed as mean. SEM of n observations, where n represents the number of animals studied. Statistical evaluation was performed by using analysis of variance (ANOVA) followed by a multiple comparison test (Scheffe's test), the IL-10 level and the neutrophil infiltration index which were analyzed by unpaired Student's t test. The chi-square test was used for determining the significant differences in the survival rate between control and drug-treated groups. A P value of less than 0.05 was considered to be statistically significant.

TNF-α = assay: Plasma TNF-α (ELISA) in LPS-treated rats; format: in vivo, Wistar-Kyoto (WKY) rats; conditions: 5 mg/Kg iv 30 min before LPS (10 mg/Kg iv); measurement taken at 2 h
Protocol: as §1
Blood samples (0.3 mL) for the measurement of TNF-α level in the plasma were obtained at 0, 60, 120, 180, and 360 min. after the injection of saline or LPS. At 60 and 360 min. after the injection of saline or LPS, the volume of blood sample taken from the animals was 0.5 mL instead of 0.3 mL for performing the measurement of IL-10 in addition to TNF-α. These samples were collected from a catheter placed in the carotid artery and were centrifuged at 7200 g for 3 min. to obtain the plasma for measuring the levels of TNF-α, IL-10, and nitrate (as described below). The plasma samples (100 μL) were diluted 1:2, and TNF-α was measured in duplicate with an enzyme-linked immunoadsorbent assay (ELISA) kit (Genzyme Co., Cambridge, Mass.), and the amounts of IL-10 in the plasma (100 μL) were measured by ELISA kit (Endogen Inc., Boston, Mass.), as described previously (Yen, M. H. et al.: Biochem. Biophys. Res. Commun. 228:459-466 (1996)).
Compounds, XXV and XXVI (shown below), were tested according to the foregoing protocols. In the following tables, XXV or XXVI (5 mg/Kg, iv) was injected 30 min before LPS treatment (10 mg/Kg, iv) unless otherwise indicated. In all experiments, at least six rats were tested. All measurements were performed 6 h after LPS injection unless otherwise indicated. […]

[6] = 5 mg/Kg iv 30 min before LPS (10 mg/Kg iv)
[7] = 5 mg/Kg iv 30 min before LPS (10 mg/Kg iv), XXVI value not statistically significant
[8] = 6 hours after LPS, pretreatment (30 min before LPS; 5, 10 mg/kg) and post-treatment (30 min after LPS; 10 mg/kg), p<0.05

Sequence of σ1 (Q99720 whole entry): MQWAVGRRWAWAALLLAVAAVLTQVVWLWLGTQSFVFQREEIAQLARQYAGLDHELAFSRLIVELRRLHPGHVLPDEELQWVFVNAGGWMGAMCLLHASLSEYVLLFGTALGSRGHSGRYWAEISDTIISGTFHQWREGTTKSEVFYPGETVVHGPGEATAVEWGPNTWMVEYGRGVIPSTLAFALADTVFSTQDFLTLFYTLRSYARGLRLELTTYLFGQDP

`Br.C=CCN1CC[C@]23CCCC[C@H]2[C@H]1Cc1ccc(OC)cc13` showed a melting point of 190 to 192 °C.
With `Br.COc1ccc2c(c1)[C@@]13CCCC[C@H]1[C@@H](C2)N(Cc1ccccc1)CC3` the melting point was 185 to 186 °C.
`Br.COc1ccc2c(c1)[C@@]13CCCC[C@H]1[C@@H](C2)N(Cc1ccc(F)cc1)CC3` showed a melting point of 226 to 228 °C.
For `C=CCN1CCC2(C)c3cc(O)ccc3CC1C2C` (stereo not shown) [N-allylnormetazocine], the “affinity at σ1” value (σ1) is listed as “relatively poor affinity” and the σ1/σ2 ratio (σ1; selectivity ratio) is listed as less than 100.
In the case of `C=CCCCCN1CCC2(C)c3cc(O)ccc3CC1C2C` (stereo not shown) [N-hex-5-enyl], the Ki (σ1) is given as 1 nM and the σ2/σ1 (σ1; selectivity ratio) is given as 750.
In the case of `C=CCCCN1CCC2(C)c3cc(O)ccc3CC1C2C` (stereo not shown) [N-pent-4-enyl], the Ki (σ1) is given as 2 nM and the σ2/σ1 (σ1; selectivity ratio) is given as 1250.
For `COc1ccc2c(c1)[C@]13CCCCC1[C@H](C2)N(C)CC3` (stereo partly shown) [XXVI], the “MAP % Protection” value [1] was 100%, the “MAP, LPS + Compound” value [1] was 105 mmHg and the “Creatinine % of Inhibition” value (Creatinine) was 60%. For the same compound, the “Creatinine, LPS + Compound” value (Creatinine) was 0.40 mg/dL, the “Superoxide % Inhibition” value (Superoxide; [6]) was 68% and the “Superoxide, LPS + Compound” value (Superoxide; [6]) was 8200 relative units. The “Blood urine nitrogen % of Inhibition” value (Blood urea nitrogen) was 47%, the “Blood urine nitrogen, LPS + Compound” value (Blood urea nitrogen) was 45 mg/dL and the “Heart Rate % Protection” value [2] was 36%. For the same compound, the “Heart Rate, LPS + Compound” value [2] was 420 beats/min, the “Nitrate % Inhibition” value [3] was 75% and the “Nitrate, LPS + Compound” value [3] was 75 µM. The “Lung tissue morphology after compound alone” value ([4]; injections of compound alone, no LPS, n=2, FIG. 5 (400×) and FIG. 6 (40×)) was “morphologically relatively normal lung tissues”, the “PMN infiltration in lung caused by LPS” value ([4]; pretreatment with compound, high power (400×) light microscope, FIG. 5) was “improved” and the “Thickness of alveolar wall with interstitial congestion and edema caused by LPS” value ([4]; pretreatment with compound, low power (40×) light microscope, FIG. 6) was “improved”. The “SGOT % Inhibition” value (SGOT; [6]) was 53%, the “SGOT, LPS + Compound” value (SGOT; [6]) was 158 U/L and the “SGPT, LPS + Compound” value (SGPT; [6]) was 36 U/L. The “SGPT % Inhibition” value (SGPT; [7]) was 100^3%, the “% of Protection (survival at 14 h)” value ([5]; 14 h after LPS) was 100% and the “% of Survival at 14 h, LPS + Compound” value ([5]; 14 h after LPS, method: LPS 60 mg/kg i.p., compound 2.5 mg/kg at 0 and 6 h) was 100%. The “% of Protection (survival at 18 h)” value ([5]; 18 h after LPS) was 40%, the “% of Survival at 18 h, LPS + Compound” value ([5]; 18 h after LPS, method: LPS 60 mg/kg i.p., compound 2.5 mg/kg at 0 and 6 h) was 40% and the “TNF-α % Inhibition” value (TNF-α) was 74%. The “TNF-α, LPS + Compound” value (TNF-α) was 510 ng/mL.
With `O=C1CC[C@@]2(O)[C@@H]3Cc4ccc(O)c5c4C2(CCN3CC2CC2)[C@H]1O5` [XXV] the “MAP % Protection” value [1] was 33%, the “MAP, LPS + Compound” value [1] was 80 mmHg and the “Superoxide % Inhibition” value (Superoxide; Post-treatment with 10 mg/Kg) was 69%. The “Superoxide, LPS + Compound” value (Superoxide; Post-treatment with 10 mg/Kg) was 15720 relative units, the “Superoxide % Inhibition” value (Superoxide; Pretreatment with 10 mg/Kg) was 85% and the “Superoxide, LPS + Compound” value (Superoxide; Pretreatment with 10 mg/Kg) was 11866 relative units. For the same compound, the “Heart Rate % Protection” value [2] was greater than 90%, the “Heart Rate, LPS + Compound” value [2] was 410 beats/min and the “SGOT % Inhibition” value (SGOT; [6]) was 60%. For the same compound, the “SGOT, LPS + Compound” value (SGOT; [6]) was 192 U/L, the “Effect on SGOT after LPS” value (SGOT; [8]) was “significant decrease” and the “SGOT % Inhibition” value (SGOT; Post-treatment with 10 mg/Kg) was 76%. For the same compound, the “SGOT, LPS + Compound” value (SGOT; Post-treatment with 10 mg/Kg) was 192 U/L, the “SGOT % Inhibition” value (SGOT; Pretreatment with 10 mg/Kg) was 94% and the “SGOT, LPS + Compound” value (SGOT; Pretreatment with 10 mg/Kg) was 192 U/L. The “SGPT, LPS + Compound” value (SGPT; [6]) was 61.6 U/L, the “SGPT % Inhibition” value (SGPT; [7]) was 78% and the “Effect on SGTP after LPS” value (SGPT; [8]) was “significant decrease”. For the same compound, the “SGPT % Inhibition” value (SGPT; Post-treatment with 10 mg/Kg) was 82%, the “SGPT, LPS + Compound” value (SGPT; Post-treatment with 10 mg/Kg) was 59.6 U/L and the “SGPT % Inhibition” value (SGPT; Pretreatment with 10 mg/Kg) was 94%. For the same compound, the “SGPT, LPS + Compound” value (SGPT; Pretreatment with 10 mg/Kg) was 53.8 U/L, the “TNF-α % Inhibition” value (TNF-α) was 50% and the “TNF-α, LPS + Compound” value (TNF-α) was 180 ng/mL.
